According to BindingDB's records for doi:10.1038/sj.bjp.0702632 (Roche Bioscience, 1999):

Columns and labels:
[1] = target: 5-hydroxytryptamine receptor 2B (Homo sapiens, UniProt P41595)
[2] = target: T1, 5-hydroxytryptamine receptor 3A (Homo sapiens, UniProt P46098)
T1 sequence (P46098 whole entry): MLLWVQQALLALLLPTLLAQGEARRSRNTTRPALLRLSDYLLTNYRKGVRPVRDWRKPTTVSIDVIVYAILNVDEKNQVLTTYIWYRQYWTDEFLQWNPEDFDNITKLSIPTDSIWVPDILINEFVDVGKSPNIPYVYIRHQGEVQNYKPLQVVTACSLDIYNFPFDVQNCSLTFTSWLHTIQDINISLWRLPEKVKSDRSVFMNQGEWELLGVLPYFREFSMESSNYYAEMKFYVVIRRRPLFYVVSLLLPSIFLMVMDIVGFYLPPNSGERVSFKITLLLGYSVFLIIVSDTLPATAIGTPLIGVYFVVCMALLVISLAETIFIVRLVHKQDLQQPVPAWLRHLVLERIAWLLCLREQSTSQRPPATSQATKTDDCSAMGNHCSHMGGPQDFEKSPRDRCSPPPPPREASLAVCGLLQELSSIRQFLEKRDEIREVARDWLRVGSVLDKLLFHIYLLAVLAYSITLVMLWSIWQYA

[3] = target: T2, 5-hydroxytryptamine receptor 2C (Homo sapiens, UniProt P28335)
T2 sequence (P28335 whole entry): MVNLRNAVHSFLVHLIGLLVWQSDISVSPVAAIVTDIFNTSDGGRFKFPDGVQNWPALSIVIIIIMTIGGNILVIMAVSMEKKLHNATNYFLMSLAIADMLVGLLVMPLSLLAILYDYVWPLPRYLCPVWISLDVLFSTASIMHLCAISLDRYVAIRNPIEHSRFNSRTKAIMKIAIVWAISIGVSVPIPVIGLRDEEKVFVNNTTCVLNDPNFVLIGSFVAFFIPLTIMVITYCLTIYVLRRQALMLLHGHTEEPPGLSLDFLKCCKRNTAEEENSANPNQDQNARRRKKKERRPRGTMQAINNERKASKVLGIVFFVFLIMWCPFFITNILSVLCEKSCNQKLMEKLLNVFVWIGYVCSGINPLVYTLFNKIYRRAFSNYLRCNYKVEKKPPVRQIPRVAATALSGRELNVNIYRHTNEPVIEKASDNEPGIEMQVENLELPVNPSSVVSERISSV

[4] = target: 5-hydroxytryptamine receptor 5A (Homo sapiens, UniProt P47898)
Sequence of 5-hydroxytryptamine receptor 5A (P47898 whole entry): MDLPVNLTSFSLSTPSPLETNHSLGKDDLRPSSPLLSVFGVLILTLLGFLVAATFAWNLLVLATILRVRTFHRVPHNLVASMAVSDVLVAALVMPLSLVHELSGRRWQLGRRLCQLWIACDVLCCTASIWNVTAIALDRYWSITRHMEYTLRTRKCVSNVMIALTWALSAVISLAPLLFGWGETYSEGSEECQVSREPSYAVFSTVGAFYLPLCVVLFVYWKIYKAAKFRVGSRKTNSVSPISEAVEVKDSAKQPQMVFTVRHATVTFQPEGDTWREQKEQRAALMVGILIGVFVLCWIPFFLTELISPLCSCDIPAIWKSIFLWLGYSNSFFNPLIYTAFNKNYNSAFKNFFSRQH

[5] = target: 5-hydroxytryptamine receptor 6 (Homo sapiens, UniProt P50406)
Sequence of 5-hydroxytryptamine receptor 6 (P50406 whole entry): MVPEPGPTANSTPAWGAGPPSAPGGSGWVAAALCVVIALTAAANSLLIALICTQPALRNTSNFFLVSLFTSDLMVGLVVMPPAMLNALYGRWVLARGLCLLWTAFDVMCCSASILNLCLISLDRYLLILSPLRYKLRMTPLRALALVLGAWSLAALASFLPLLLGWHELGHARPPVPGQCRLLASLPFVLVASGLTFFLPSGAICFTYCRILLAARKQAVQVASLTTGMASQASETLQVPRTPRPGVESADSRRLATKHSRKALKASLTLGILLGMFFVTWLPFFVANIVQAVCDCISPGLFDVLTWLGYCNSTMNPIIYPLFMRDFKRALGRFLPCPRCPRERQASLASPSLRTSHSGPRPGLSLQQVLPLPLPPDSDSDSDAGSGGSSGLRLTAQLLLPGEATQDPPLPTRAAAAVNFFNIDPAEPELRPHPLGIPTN

[6] = target: 5-hydroxytryptamine receptor 2A (Homo sapiens, UniProt P28223)
Sequence of 5-hydroxytryptamine receptor 2A (P28223 whole entry): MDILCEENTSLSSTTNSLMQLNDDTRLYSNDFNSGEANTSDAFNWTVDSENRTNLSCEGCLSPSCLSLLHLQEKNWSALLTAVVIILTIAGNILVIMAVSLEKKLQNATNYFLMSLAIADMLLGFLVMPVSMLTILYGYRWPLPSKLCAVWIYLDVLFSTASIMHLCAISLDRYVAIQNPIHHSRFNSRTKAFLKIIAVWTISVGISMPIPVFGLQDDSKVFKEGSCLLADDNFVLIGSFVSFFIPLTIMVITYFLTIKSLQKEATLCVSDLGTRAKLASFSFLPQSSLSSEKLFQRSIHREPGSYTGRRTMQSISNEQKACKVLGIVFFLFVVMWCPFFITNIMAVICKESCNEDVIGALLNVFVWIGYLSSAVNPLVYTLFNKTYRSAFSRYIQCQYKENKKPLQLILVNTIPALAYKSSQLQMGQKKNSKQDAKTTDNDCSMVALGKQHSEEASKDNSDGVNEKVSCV

Sequence of 5-hydroxytryptamine receptor 2B (P41595 whole entry): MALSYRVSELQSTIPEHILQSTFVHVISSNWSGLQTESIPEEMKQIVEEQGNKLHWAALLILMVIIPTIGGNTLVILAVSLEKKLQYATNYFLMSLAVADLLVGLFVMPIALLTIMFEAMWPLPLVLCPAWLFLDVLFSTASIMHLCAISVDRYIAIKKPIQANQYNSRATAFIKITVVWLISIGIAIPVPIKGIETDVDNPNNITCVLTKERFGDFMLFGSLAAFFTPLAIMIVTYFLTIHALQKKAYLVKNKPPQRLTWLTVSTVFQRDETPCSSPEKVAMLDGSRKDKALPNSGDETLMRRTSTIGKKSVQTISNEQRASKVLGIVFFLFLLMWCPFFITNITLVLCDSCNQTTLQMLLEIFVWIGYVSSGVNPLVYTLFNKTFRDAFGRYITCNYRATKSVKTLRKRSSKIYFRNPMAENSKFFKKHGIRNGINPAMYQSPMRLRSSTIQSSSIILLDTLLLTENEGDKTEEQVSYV

Ki [1] | Ki [2] | Ki [3] | Ki [4] | Ki [5] | Ki [6] | SMILES
1 nM | – | – | – | – | – | COc1ccc(CC2NCCc3c2[nH]c2ccccc32)cc1OC (stereo not drawn) [LY-23728]
1 nM | – | – | – | – | – | Cc1nc2sccn2c(=O)c1CCN1CCC(=C(c2ccc(F)cc2)c2ccc(F)cc2)CC1
0.32 nM | 1000 nM | 398 nM | 1000 nM | 1000 nM | 501 nM | CC(C)c1cc(-c2ccc(F)c3ccccc23)nc(N)n1 [RS-127445]
